Reference: US12319655B2, “RAF kinase inhibitors and methods of use thereof” (Deciphera Pharmaceuticals, LLC, priority 2021, dated 2025)

How the values were obtained:
[1] = molecular target: A-Raf kinase (SEQ. ID No: 1) (Homo sapiens (Human), UniProt P10398, Y301D/Y302D); assay: Biochemical Assay for A-Raf (1); settings: Table J, assay version (1); read-out: ARAF (1) IC50
Procedure, shortened: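 A-Raf Y301D/Y302D at 5.55 nM phosphorylates 30.1 nM MEK with 1 mM ATP in pH 7.5 Tris buffer, 1% DMSO. Activity was read continuously as NADH oxidation at 340 nm in a pyruvate kinase/lactate dehydrogenase coupled system for 6 h at 30 °C. Rates from 4–5 h were converted to percent inhibition, and IC50 came from a four-parameter fit.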

H2405 cells = assay: H2405 Cell Proliferation Assay (1); assay type: cell-based; settings: Homo sapiens, NCI-H2405
Procedure, shortened: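 Viability was read by resazurin reduction (ex 540 nm, em 600 nm; 5-6 h with 40 μL of 440 μM stock) after 67-72 h compound exposure at 37 °C.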

[2] = molecular target: B-Raf (V600E) (SEQ. ID NO: 4) kinase (Homo sapiens (Human), UniProt P15056, V600E); assay: Biochemical Assay for B-Raf (V600E) (1); settings: Table J, BRAF V600E, assay version (1); read-out: BRAF VE (1) IC50
B-Raf (V600E) (SEQ. ID NO: 4) kinase, sequence (P15056 416-766 V600E): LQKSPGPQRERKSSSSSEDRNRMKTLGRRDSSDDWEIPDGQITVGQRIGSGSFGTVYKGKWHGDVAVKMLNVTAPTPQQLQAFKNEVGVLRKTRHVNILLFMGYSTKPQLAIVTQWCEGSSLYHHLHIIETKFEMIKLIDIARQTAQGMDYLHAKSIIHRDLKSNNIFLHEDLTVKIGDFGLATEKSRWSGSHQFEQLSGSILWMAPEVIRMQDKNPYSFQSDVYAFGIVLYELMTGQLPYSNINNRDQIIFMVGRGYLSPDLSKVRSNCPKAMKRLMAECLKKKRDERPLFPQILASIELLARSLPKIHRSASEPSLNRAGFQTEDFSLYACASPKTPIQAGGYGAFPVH
Procedure, shortened: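 Coupled pyruvate kinase/lactate dehydrogenase assay: 0.03 nM B-Raf V600E, 30.1 nM MEK, 1 mM ATP, pH 7.5 Tris/MgCl2 buffer, 1% DMSO. NADH oxidation followed at 340 nm for 6 h at 30 °C; rate from 3–4 h converted to percent inhibition, IC50 by four-parameter fit.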

Miapaca-2 cells = assay: MiaPaca-2 Cell Proliferation Assay (1); assay type: cell-based; settings: Homo sapiens, MIA PaCa-2, single agent, read-out: MiaPaca2 (1) IC50
Procedure, shortened: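 Resazurin was added after compound exposure and incubated 5-6 h, then fluorescence read at 540 nm excitation and 600 nm emission to give IC50.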

A-Raf kinase (SEQ. ID No: 1), sequence (P10398 other isoform, or with tags, fused parts or gaps Y301D (already in the parent)/Y302D (already in the parent)): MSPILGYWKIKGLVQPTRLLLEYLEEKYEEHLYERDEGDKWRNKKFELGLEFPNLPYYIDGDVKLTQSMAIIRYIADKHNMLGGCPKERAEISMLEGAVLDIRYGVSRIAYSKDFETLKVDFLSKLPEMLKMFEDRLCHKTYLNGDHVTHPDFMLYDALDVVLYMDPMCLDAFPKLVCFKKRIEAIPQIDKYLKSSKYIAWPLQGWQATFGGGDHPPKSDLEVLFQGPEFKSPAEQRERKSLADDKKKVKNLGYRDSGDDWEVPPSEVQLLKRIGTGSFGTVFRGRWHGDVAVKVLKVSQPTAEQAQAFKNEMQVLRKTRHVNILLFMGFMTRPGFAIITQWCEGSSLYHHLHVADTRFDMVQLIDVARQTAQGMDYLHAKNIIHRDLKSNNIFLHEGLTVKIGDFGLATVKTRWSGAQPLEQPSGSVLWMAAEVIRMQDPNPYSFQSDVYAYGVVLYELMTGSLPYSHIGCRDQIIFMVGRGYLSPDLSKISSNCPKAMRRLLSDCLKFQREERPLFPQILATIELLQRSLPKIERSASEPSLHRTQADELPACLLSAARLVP

IC50 [1] [µM] | IC50 (H2405 cells) [µM] | IC50 [2] [µM] | IC50 (Miapaca-2 cells) [µM] | Structure (SMILES)
1 to 10 | ≤ 0.1 | ≤ 0.1 | 1 to 10 | COC(C)(C)c1cc(C(=O)Nc2cnc(C)c(-c3cccc(-c4cc(NC(=O)C5CC5)ncn4)c3)c2)ccn1 [Example 274]
1 to 10 | 1 to 10 | ≤ 0.1 | 1 to 10 | Cc1ncc(NC(=O)c2cnnc(C3CC3)c2)cc1-c1ccnc(-c2ccnc(NC(=O)C3CC3)c2)n1 [Example 278]
1 to 10 | 0.1 to 0.5 | ≤ 0.1 | 1 to 10 | Cc1ncc(NC(=O)c2cnn(C(C)(C)C)c2)cc1-c1cccc(-c2cc(NC(=O)C3CC3)ncn2)c1 [Example 279]
